# Measurements taken from patent US20130108573A1, “Bile Acid Recycling Inhibitors for Treatment of Hypercholemia and Cholestatic Liver Disease” (Lumena Pharmaceuticals, Inc., priority 2011, published 2013).
# What was measured:
# [1] = tested on: Fecal Bile Acid Excretion and Plasma Bile Acid Concentrations; assay: ZDF rat study of 264W94: fecal bile acid excretion and plasma bile acid concentrations; format: in vivo, Zucker diabetic fatty rats; conditions: male ZDF rats, 2 weeks
# Experimental: Male Zucker diabetic fatty rats (ZDF/GmiCrl-fa/fa) were purchased from Charles River (Raleigh, N.C.) and housed under controlled conditions (12:12 light-dark cycle, 24° C. and 50% relative humidity) with free access to rodent food (Purina 5008, Harlan Teklad, Indianapolis, Ind.). All rats arrived at seven weeks of age (±3 days). After a one-week acclimation period, rats were anesthetized with isoflurane (Abbott Laboratories, IL) and tail-vein blood samples were collected at 9 am without fasting. Blood glucose levels were measured using a glucometer (Bayer, Leverkusen, Germany). In order to ensure balanced treatment groups, ZDF rats were assigned to six treatment groups based upon baseline glucose: vehicle (0.5% HPMC, 0.1% Tween80) and five doses of 264W94 (0.001, 0.01, 0.1, 1, 10 mg/kg). All treatments were given via oral gavage twice a day and animals were followed for two weeks with blood samples collected from tail vein at the end of each week at 9 am without fasting. Fecal samples were collected for 24 hours during the second week of treatment.
# Non-esterified fatty acids (NEFA), bile acids, and bile acids in fecal extraction were measured using the Olympus AU640 clinical chemistry analyzer (Beckman Coulter, Irving, Tex.).
# Plasma Bile Acid Levels = assay: Plasma bile acid levels of ZDF rats after ascending doses of SC-435 and LUM002; format: in vivo; conditions: male ZDF rats n=4, end of second week
# Experimental: FIG. 2. Plasma bile acid levels of ZDF rats after administration of ascending doses of SC-435 and LUM002. Male ZDF rats (n=4) were administered vehicle, SC-435 (1, 10 or 30 mg/kg) or LUM002 (0.3, 1, 3, 10 or 30 mg/kg) by oral gavage twice a day for 2 weeks. Plasma bile acid levels were determined at the end of the second week. Data are expressed as mean values ±SEM.
# Male ZDF rats (n=4) were administered vehicle, SC-435 (1, 10 or 30 mg/kg) or LUM002 (0.3, 1, 3, 10 or 30 mg/kg) by oral gavage twice a day for 2 weeks. Plasma bile acid levels were determined at the end of the second week. […] Data are expressed as mean values ±SEM.
# [2] = 264W94 0.001-10 mg/kg oral gavage twice a day
structure (smiles),measurement,setting,value
CCCC[C@]1(CC)CS(=O)(=O)c2cc(OC)c(OC)cc2[C@@H](c2ccccc2)N1 [Compound 264W94],Fecal NEFA,[1]; [2],slightly increased
same,Plasma bile acid concentrations,[1]; [2],decreased dose-dependently
same,Fecal bile acid concentrations elevated compared to vehicle treated rats,"[1]; 264W94 0.001-10 mg/kg oral gavage twice a day, 24 h feces in second week",up to 6.5 fold
same,Bile acids in the feces,[1]; oral administration of 264W94 0.001-10 mg/kg twice a day,dose-dependently increased
same,ED50 of fecal bile acid elevation,[1]; oral gavage twice a day,0.17 mg/kg
CCCC[C@]1(CC)CS(=O)(=O)c2ccc(N(C)C)cc2[C@@H](c2cccc(NC(=O)N[C@@H]3O[C@H](COS(=O)(=O)[O-])[C@@H](O)[C@H](OCc4ccccc4)[C@H]3O)c2)[C@H]1O.[K+] [LUM002],Plasma bile acid levels,"Plasma Bile Acid Levels; LUM002 0.3, 1, 3, 10 or 30 mg/kg oral gavage twice a day for 2 weeks",decreased for all doses
"CCCCC1(CCCC)CS(=O)(=O)c2ccc(N(C)C)cc2[C@@H](c2ccc(OCCCC[N+]34CCN(CC3)CC4)cc2)[C@H]1O.CS(=O)(=O)[O-] [SC-435, 1-[4-[4-[(4R,5R)-3,3-dibutyl-7-(dimethylamino)-2,3,4,5-tetrahydro-4-hydroxy-1,1-dioxido-1-benzothiepin-5-yl]phenoxy]butyl]-4-aza-1-azoniabicyclo[2.2.2]octane methanesulfonate salt, reference compound]",Plasma bile acid levels,"Plasma Bile Acid Levels; SC-435 1, 10 or 30 mg/kg oral gavage twice a day for 2 weeks",decreased for all doses
